According to ChEMBL document CHEMBL5244275, “Geminal Diheteroatomic Motifs: Some Applications of Acetals, Ketals, and Their Sulfur and Nitrogen Homologues in Medicinal Chemistry and Drug Design” (J Med Chem, 2021):
Converted amounts (≈) assume the structure as drawn.

test system: not listed separately; experiment: Half-life in human plasma; type: ADME; settings: not given

Point of comparison: N=C(N)NCCN1CCCCCCC1 [GUANETHIDINE], half-life 36 h. Against it:
- COC(=O)N[C@H](C(=O)N1CCC[C@H]1c1nc(-c2ccc(-c3ccc(-c4c[nH]c([C@@H]5CCCN5C(=O)[C@@H](NC(=O)OC)C(C)C)n4)cc3)cc2)c[nH]1)C(C)C — 3-fold lower, 12 h
- COC(=O)N[C@H](C(=O)N1CCC[C@H]1c1ncc(-c2ccc(-c3ccc(-c4cnc([C@@H]5CC6(CN5C(=O)[C@@H](NC(=O)OC)C(C)C)OCCO6)[nH]4)cc3)cc2)[nH]1)C(C)C — 4.5-fold lower, 8 h

test system: PC-6; experiment: Growth inhibition of human PC-6 cells; type: functional; settings: not given

Point of comparison: CC(=O)O[C@@]12CO[C@@H]1CC[C@@]1(C)[C@@H]3O[C@H](CN(C)C)O[C@@H]3C3=C(C)[C@@H](OC(=O)[C@H](O)[C@@H](NC(=O)OC(C)(C)C)c4ncccc4F)C[C@@](O)([C@@H](OC(=O)c4ccccc4)[C@@H]12)C3(C)C [TESETAXEL], GI50 0.38 ng/mL (≈ 0.431 nM). Against it:
- CC(=O)O[C@@]12CO[C@@H]1CC[C@@]1(C)[C@H]3OC(C)(C)O[C@@H]3C3=C(C)[C@@H](OC(=O)[C@H](O)[C@@H](NC(=O)OC(C)(C)C)c4ccccn4)C[C@@](O)([C@@H](OC(=O)c4ccccc4)[C@@H]12)C3(C)C — within 1.5-fold, 0.33 ng/mL (≈ 0.395 nM)
- CC(=O)O[C@@]12CO[C@@H]1CC[C@@]1(C)[C@@H]3O[C@H](CN4CCOCC4)O[C@@H]3C3=C(C)[C@@H](OC(=O)[C@H](O)[C@@H](NC(=O)OC(C)(C)C)c4ncccc4F)C[C@@](O)([C@@H](OC(=O)c4ccccc4)[C@@H]12)C3(C)C — within 1.5-fold, 0.29 ng/mL (≈ 0.314 nM)
- CC(=O)O[C@H]1C(=O)[C@@]2(C)[C@H]([C@H](OC(=O)c3ccccc3)[C@]3(O)C[C@H](OC(=O)[C@H](O)[C@@H](NC(=O)c4ccccc4)c4ccccc4)C(C)=C1C3(C)C)[C@]1(OC(C)=O)CO[C@@H]1C[C@@H]2O [PACLITAXEL] — 3.3-fold higher, 1.27 ng/mL (≈ 1.49 nM)
- CC(=O)O[C@@]12CO[C@@H]1C[C@H](O)[C@@]1(C)C(=O)[C@H](O)C3=C(C)[C@@H](OC(=O)[C@H](O)[C@@H](NC(=O)OC(C)(C)C)c4ccccc4)C[C@@](O)([C@@H](OC(=O)c4ccccc4)[C@H]21)C3(C)C [DOCETAXEL ANHYDROUS] — 3.9-fold higher, 1.48 ng/mL (≈ 1.83 nM)

test system: not listed separately; experiment: Oral bioavailability in human; type: ADME, organism-based; settings: in vivo

Point of comparison: Nc1nc(Cl)nc2c1ncn2[C@H]1C[C@H](O)[C@@H](CO)O1 [CLADRIBINE], bioavailability 40%. Against it:
- Nc1ccn([C@H]2CC[C@@H](CO)O2)c(=O)n1 [ZALCITABINE] — higher, 80%
- Nc1ccn([C@@H]2O[C@H](CO)[C@@H](O)[C@@H]2O)c(=O)n1 [CYTARABINE] — lower, 20%

test system: not listed separately; experiment: Stability of the compound in 0.01 N HCL at pH 2.0 assessed as half-life; type: physicochemical; settings: not given

Point of comparison: C[C@H]1[C@@H](Cc2ccccc2)O[C@@H]2O[C@@]3(C)CC[C@H]4[C@H](C)CC[C@@H]1[C@@]24OO3, half-life 165 h. Against it:
- C[C@@H]1CC[C@H]2[C@@H](C)CO[C@@H]3O[C@@]4(C)CC[C@@H]1[C@]32OO4 — the same, 165 h
- C[C@H]1[C@@H](O[C@H](CCC(=O)O)c2ccc(Cl)cc2)O[C@@H]2O[C@@]3(C)CC[C@H]4[C@H](C)CC[C@@H]1[C@@]24OO3 — 13-fold lower, 13 h
- C[C@H]1[C@@H](CCCC(=O)O)O[C@@H]2O[C@@]3(C)CC[C@H]4[C@H](C)CC[C@@H]1[C@@]24OO3 — the same, 165 h
- CCCC[C@H]1O[C@@H]2O[C@@]3(C)CC[C@H]4[C@H](C)CC[C@@H]([C@H]1C)[C@@]24OO3 — the same, 165 h
- C[C@H]1[C@@H](OCc2ccc(C(=O)O)cc2)O[C@@H]2O[C@@]3(C)CC[C@H]4[C@H](C)CC[C@@H]1[C@@]24OO3 — 15-fold lower, 11 h
- C[C@H]1[C@@H](CCCCC(=O)O)O[C@@H]2O[C@@]3(C)CC[C@H]4[C@H](C)CC[C@@H]1[C@@]24OO3 — the same, 165 h
- C[C@H]1[C@@H](CCc2ccc(C(=O)O)cc2)O[C@@H]2O[C@@]3(C)CC[C@H]4[C@H](C)CC[C@@H]1[C@@]24OO3 — the same, 165 h

test system: not listed separately; experiment: Inhibition of Leukotriene B4 production in human blood Polymorphonuclear neutrophil cells; type: functional, tissue-based; settings: not given

Work on O=C1OCc2c1cc1cc(OCc3cccc(C4(O)CC5COC(C4)O5)c3)ccc1c2-c1ccccc1 (stereo not given) yielded an IC50 of 6 nM.

test system: not listed separately; experiment: Chemical stability of the compound assessed as acid-catalyzed hydrolysis by measuring rate constant; type: physicochemical; settings: not given

Point of comparison: Nc1ncnc2c1ncn2[C@@H]1O[C@H](CO)C[C@@H]1O, Drug metabolism 0.057 L/mol/min. Against it:
- Nc1ncnc2c1ncn2[C@@H]1O[C@H](CO)C[C@H]1O [CORDYCEPIN] — lower, 0.012 L/mol/min
- Nc1ncnc2c1ncn2[C@H]1C[C@H](O)[C@@H](CO)O1 [DEOXYADENOSINE] — higher, 0.96 L/mol/min
- Nc1ncnc2c1ncn2[C@H]1CC[C@@H](CO)O1 — higher, 35 L/mol/min

For Nc1ncnc2c1ncn2[C@@H]1O[C@H](CO)[C@H](O)[C@@H]1O, the Drug metabolism was 9.6 10^-3L/mol/min.
With Nc1ncnc2c1ncn2[C@@H]1O[C@H](CO)[C@@H](O)[C@H]1O [ADENOSINE] the Drug metabolism was 0.82 10^-3L/mol/min.
In the case of Nc1ncnc2c1ncn2[C@@H]1O[C@H](CO)[C@H](O)[C@H]1O, the Drug metabolism is reported as 0.29 10^-3L/mol/min.

test system: not listed separately; experiment: Stability of the compound assessed as compound hydrolysis by measuring rate constant by NMR spectroscopic analysis; type: physicochemical; settings: not given

Point of comparison: CC(Cl)C1(C)CCC(C)(C)CC1 (stereo not given), K 0. Against it:
- CC(Cl)C1(C)OCCO1 (stereo not given) — the same, 0

In the case of C=CC1(C)OCCO1, the K is reported as 8.8 10^-4No_unit.
With CC(Cl)C1(C)CCCCC1 (stereo not given) the K was 2.25 10^-6No_unit.
For C=CC1(C)CCCCC1, the K was 9.9 10^-3No_unit.
With C=CC1(C)CCC(C)(C)CC1 the K was 7.33 10^-4No_unit.

test system: not listed separately; experiment: Oral bioavailability in rat; type: ADME, organism-based; settings: in vivo

In the case of c1cc([C@H]2CC[C@]3(CC2)OOC2(O3)C3CC4CC(C3)CC2C4)ccc1OCCN1CCOCC1 (stereo not given in full), the bioavailability is reported as 76%.

test system: not listed separately; experiment: Growth inhibition of human PC-12 cells; type: functional, PC12; settings: not given

Point of comparison: CC(=O)O[C@@]12CO[C@@H]1CC[C@@]1(C)[C@@H]3O[C@H](CN(C)C)O[C@@H]3C3=C(C)[C@@H](OC(=O)[C@H](O)[C@@H](NC(=O)OC(C)(C)C)c4ncccc4F)C[C@@](O)([C@@H](OC(=O)c4ccccc4)[C@@H]12)C3(C)C [TESETAXEL], GI50 0.62 ng/mL (≈ 0.703 nM). Against it:
- CC(=O)O[C@@]12CO[C@@H]1CC[C@@]1(C)[C@H]3OC(C)(C)O[C@@H]3C3=C(C)[C@@H](OC(=O)[C@H](O)[C@@H](NC(=O)OC(C)(C)C)c4ccccn4)C[C@@](O)([C@@H](OC(=O)c4ccccc4)[C@@H]12)C3(C)C — 4.1-fold lower, 0.15 ng/mL (≈ 0.18 nM)
- CC(=O)O[C@@]12CO[C@@H]1CC[C@@]1(C)[C@@H]3O[C@H](CN4CCOCC4)O[C@@H]3C3=C(C)[C@@H](OC(=O)[C@H](O)[C@@H](NC(=O)OC(C)(C)C)c4ncccc4F)C[C@@](O)([C@@H](OC(=O)c4ccccc4)[C@@H]12)C3(C)C — 4.4-fold lower, 0.14 ng/mL (≈ 0.152 nM)
- CC(=O)O[C@H]1C(=O)[C@@]2(C)[C@H]([C@H](OC(=O)c3ccccc3)[C@]3(O)C[C@H](OC(=O)[C@H](O)[C@@H](NC(=O)c4ccccc4)c4ccccc4)C(C)=C1C3(C)C)[C@]1(OC(C)=O)CO[C@@H]1C[C@@H]2O [PACLITAXEL] — 870-fold higher, 539 ng/mL (≈ 631 nM)
- CC(=O)O[C@@]12CO[C@@H]1C[C@H](O)[C@@]1(C)C(=O)[C@H](O)C3=C(C)[C@@H](OC(=O)[C@H](O)[C@@H](NC(=O)OC(C)(C)C)c4ccccc4)C[C@@](O)([C@@H](OC(=O)c4ccccc4)[C@H]21)C3(C)C [DOCETAXEL ANHYDROUS] — 68-fold higher, 42.2 ng/mL (≈ 52.2 nM)

test system: not listed separately; experiment: Dissociation constant, pKa of the compound; type: physicochemical; settings: not given

For CCC(C)n1ncn(-c2ccc(N3CCN(c4ccc(OCC5COC(Cn6cncn6)(c6ccc(Cl)cc6Cl)O5)cc4)CC3)cc2)c1=O (stereo not given) [ITRACONAZOLE], the pKa was 3.7.
